Data as given in patent US20210285024A1, “In vitro Screening Assay of TCPase Modulators” (CENTRE NATIONAL DE LA RECHERCHE SCIENTIFIQUE (CNRS), priority 2018, published 2021).

Key:
[1] = tested on: HEK293T cells deficient for VASH1 and VASH2; details: Nieuwenhuis et al., 2017; cited from earlier work
SVBP-VASH2 complex = SVBP-VASH2 complex (Homo sapiens, UniProt Q86V25); experiment: Detyrosination assay using tubulin purified from Sf9 cells and recombinant SVBP-VASH2 complex; details: 0.1 μM and 10 μM; 15 min at 37° C.; microtubules from Sf9 tubulin; western blot
Sequence of SVBP-VASH2 complex (Q86V25 whole entry): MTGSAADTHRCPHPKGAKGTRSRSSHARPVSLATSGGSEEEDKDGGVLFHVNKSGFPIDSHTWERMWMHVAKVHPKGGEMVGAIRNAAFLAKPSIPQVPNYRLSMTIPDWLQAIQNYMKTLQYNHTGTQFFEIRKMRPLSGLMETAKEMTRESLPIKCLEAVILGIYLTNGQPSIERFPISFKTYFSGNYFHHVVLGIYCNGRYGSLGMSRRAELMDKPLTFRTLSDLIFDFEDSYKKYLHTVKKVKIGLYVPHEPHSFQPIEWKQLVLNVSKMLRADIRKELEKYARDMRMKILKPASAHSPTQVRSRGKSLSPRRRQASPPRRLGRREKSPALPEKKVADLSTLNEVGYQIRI
Sequence of SVBP-VASH2 complex (Q8N300 whole entry partner): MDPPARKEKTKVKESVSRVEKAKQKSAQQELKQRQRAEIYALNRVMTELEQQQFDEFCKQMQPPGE
Experimental: FIG. 17: Detyrosination assay performed using tubulin purified from Sf9 cells and recombinant SVBP-VASH2 complex in absence or presence of putative inhibitors of detyrosinase. […] FIG. 17b: Western blot. FIG. 17c: Representation of relative optical density (detyrosination/tubulin).
A negative control sample consisting of the tubulin in the reaction buffer in absence of the detyrosinase (SVBP-VASH2 complex) was also analysed by western blotting (FIG. 17b).

SMILES | alpha-tubulin detyrosination [1] | reduction of the detyrosinating activity of SVBP-VASH2 complex (SVBP-VASH2 complex)
CC(=O)O[C@H]1C(=O)[C@@]2(C)[C@H]([C@H](OC(=O)c3ccccc3)[C@]3(O)C[C@H](OC(=O)[C@H](O)[C@@H](NC(=O)c4ccccc4)c4ccccc4)C(C)=C1C3(C)C)[C@]1(OC(C)=O)CO[C@@H]1C[C@@H]2O [Taxol, paclitaxel] | robust increase | 
C=C1C(=O)O[C@@H]2C[C@@]3(C)CCC[C@H](C)C3=C[C@H]12 [alantolactone, Alantolactone] |  | did not result in any significant reduction
C=C1C(=O)O[C@@H]2/C=C(\C)CC/C=C(\C)CC[C@@H]12 [costunolide, Costunolide] |  | did not result in any significant reduction
